# Source: patent publication US20250115583A1, “BICYCLIC INDAZOLE GLUCOCORTICOID RECEPTOR ANTAGONISTS” (Corcept Therapeutics Incorporated, priority 2021, published 2025)
# pKi: −log10 of the molar value.
# Target: glucocorticoid receptor (Homo sapiens (Human), UniProt P04150)
# Assay: HepG2 TAT assay: inhibition of dexamethasone-induced tyrosine aminotransferase (TAT) activity
# Type: cell-based
# Conditions: HepG2 cells, challenge of 100 nM dexamethasone, 18-24 hr; IC50 converted to Ki by Cheng and Prusoff equation
# Procedure: Glucocorticoid mediated activation of TAT occurs by transactivation of glucocorticoid response elements in the TAT promoter by glucocorticoid receptor-agonist complex.
# HepG2 cells were cultured using MEME media supplemented with 10% (v/v) foetal bovine serum; 2 mM L-glutamine and 1% (v/v) NEAA at 37° C., 5%/95% (v/v) CO2/air.
# Compounds were serially half log diluted in 100% (v/v) dimethylsulphoxide from a 10 mM stock.
# HepG2 cells were then lysed with 30 μl of cell lysis buffer containing a protease inhibitor cocktail for 15 minutes at 4° C. […] After 2 hours incubation at 37° C. the reaction was terminated by the addition of 15 μl of 10M aqueous potassium hydroxide solution, and the plates incubated for a further 30 minutes at 37° C.
# [compound] and fitting the data to a 4 parameter logistic equation.
# Chain of glucocorticoid receptor (P04150 whole entry): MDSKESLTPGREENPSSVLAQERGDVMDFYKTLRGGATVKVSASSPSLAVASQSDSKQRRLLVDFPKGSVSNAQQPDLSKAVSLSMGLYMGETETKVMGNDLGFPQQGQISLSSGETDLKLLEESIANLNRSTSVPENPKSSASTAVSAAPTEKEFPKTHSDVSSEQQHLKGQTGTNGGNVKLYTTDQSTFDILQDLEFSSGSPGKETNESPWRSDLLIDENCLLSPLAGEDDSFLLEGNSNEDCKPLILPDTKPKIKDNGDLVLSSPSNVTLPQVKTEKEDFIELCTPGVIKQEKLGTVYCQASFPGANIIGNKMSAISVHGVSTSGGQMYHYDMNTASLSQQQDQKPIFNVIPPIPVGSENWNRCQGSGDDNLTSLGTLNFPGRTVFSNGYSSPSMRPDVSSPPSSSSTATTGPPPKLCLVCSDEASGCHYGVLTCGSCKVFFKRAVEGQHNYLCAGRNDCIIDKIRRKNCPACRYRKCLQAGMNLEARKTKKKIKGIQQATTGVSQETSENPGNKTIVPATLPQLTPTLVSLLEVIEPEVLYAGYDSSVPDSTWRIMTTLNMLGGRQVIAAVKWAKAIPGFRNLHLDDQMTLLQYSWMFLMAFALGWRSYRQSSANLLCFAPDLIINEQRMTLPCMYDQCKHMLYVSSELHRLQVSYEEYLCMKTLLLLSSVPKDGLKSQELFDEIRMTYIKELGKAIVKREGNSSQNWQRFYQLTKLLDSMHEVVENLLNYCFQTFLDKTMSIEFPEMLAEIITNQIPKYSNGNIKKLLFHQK
row,Structure (SMILES),pKi
1,"Cc1cc2c(cnn2-c2ccc(F)cc2)cc1[C@@]12CN(C(=O)c3cc(C#N)ccn3)C[C@@H]1[C@H]2c1ccccc1 (single isomer, unassigned) [Example 149, 2-(1-(1-(4-fluorophenyl)-6-methyl-1H-indazol-5-yl)-6-phenyl-3-azabicyclo[3.1.0]hexane-3-carbonyl)isonicotinonitrile]",7.89
2,"Cc1cc2c(cnn2-c2ccc(F)cc2)cc1[C@@]12CN(C(=O)c3cc(C(F)(F)F)ccn3)C[C@@H]1[C@H]2c1ccccc1 (single isomer, unassigned) [Example 150, (1-(1-(4-fluorophenyl)-6-methyl-1H-indazol-5-yl)-6-phenyl-3-azabicyclo[3.1.0]hexan-3-yl)(4-(trifluoromethyl)pyridin-2-yl)methanone]",7.74
3,"Cc1ccc(C(=O)N2C[C@@H]3[C@@H](c4ccccc4)[C@]3(c3cc4cnn(-c5ccc(F)cc5)c4cc3C)C2)nc1 (single isomer, unassigned) [Example 151, (1-(1-(4-fluorophenyl)-6-methyl-1H-indazol-5-yl)-6-phenyl-3-azabicyclo[3.1.0]hexan-3-yl)(5-methylpyridin-2-yl)methanone]",7.55
4,"Cc1cc2c(cnn2-c2ccc(F)cc2)cc1[C@@]12CN(C(=O)c3ccc(F)cn3)C[C@@H]1[C@H]2c1ccccc1 (single isomer, unassigned) [Example 152, (1-(1-(4-fluorophenyl)-6-methyl-1H-indazol-5-yl)-6-phenyl-3-azabicyclo[3.1.0]hexan-3-yl)(5-fluoropyridin-2-yl)methanone]",7.70
5,"Cc1nc(C(=O)N2C[C@@H]3[C@@H](c4ccccc4)[C@]3(c3cc4cnn(-c5ccc(F)cc5)c4cc3C)C2)cs1 (single isomer, unassigned) [Example 153, (1-(1-(4-fluorophenyl)-6-methyl-1H-indazol-5-yl)-6-phenyl-3-azabicyclo[3.1.0]hexan-3-yl)(2-methylthiazol-4-yl)methanone]",7.42
6,"Cc1cc2c(cnn2-c2ccc(F)cc2)cc1[C@@]12CN(C(=O)c3ncccc3C#N)C[C@@H]1[C@H]2c1ccccc1 (single isomer, unassigned) [Example 155, 2-(1-(1-(4-fluorophenyl)-6-methyl-1H-indazol-5-yl)-6-phenyl-3-azabicyclo[3.1.0]hexane-3-carbonyl)nicotinonitrile]",7.72
7,"Cc1cc2c(cnn2-c2ccc(F)cc2)cc1[C@@]12CN(C(=O)c3ccc(C#N)cn3)C[C@@H]1[C@H]2c1ccccc1 (single isomer, unassigned) [Example 163, 6-(1-(1-(4-fluorophenyl)-6-methyl-1H-indazol-5-yl)-6-phenyl-3-azabicyclo[3.1.0]hexane-3-carbonyl)nicotinonitrile]",7.72
8,"Cc1cc2c(cnn2-c2ccc(F)cc2)cc1[C@@]12CN(C(=O)c3ccncc3)C[C@@H]1[C@H]2c1ccccc1 (single isomer, unassigned) [Example 165, (1-(1-(4-fluorophenyl)-6-methyl-1H-indazol-5-yl)-6-phenyl-3-azabicyclo[3.1.0]hexan-3-yl)(pyridin-4-yl)methanone]",7.08
9,"Cc1cc2c(cnn2-c2ccc(F)cc2)cc1[C@@]12CN(C(=O)c3ccc(C4CC4)cn3)C[C@@H]1[C@H]2c1ccccc1 (single isomer, unassigned) [Example 167, (5-cyclopropylpyridin-2-yl)(1-(1-(4-fluorophenyl)-6-methyl-1H-indazol-5-yl)-6-phenyl-3-azabicyclo[3.1.0]hexan-3-yl)methanone]",7.68
10,"Cc1cc2c(cnn2-c2ccc(F)cc2)cc1[C@@]12CN(C(=O)c3ncnn3C)C[C@@H]1[C@H]2c1ccccc1 (single isomer, unassigned) [Example 170, (1-(1-(4-fluorophenyl)-6-methyl-1H-indazol-5-yl)-6-phenyl-3-azabicyclo[3.1.0]hexan-3-yl)(1-methyl-1H-1,2,4-triazol-5-yl)methanone]",7.39
11,"Cc1cc2c(cnn2-c2ccc(F)cc2)cc1[C@@]12CN(C(=O)c3ncn(C)n3)C[C@@H]1[C@H]2c1ccccc1 (single isomer, unassigned) [Example 172, (1-(1-(4-fluorophenyl)-6-methyl-1H-indazol-5-yl)-6-phenyl-3-azabicyclo[3.1.0]hexan-3-yl)(1-methyl-1H-1,2,4-triazol-3-yl)methanone]",7.59
12,"CO[C@@]1(c2ccccc2)C[C@H]2CN(S(=O)(=O)c3cnn(C)n3)C[C@@]2(c2cc3cnn(-c4ccc(F)cc4)c3cc2C)C1 (stereo in doubt) [Example 19, 1-(4-fluorophenyl)-5-(5-methoxy-2-((2-methyl-2H-1,2,3-triazol-4-yl)sulfonyl)-5-phenylhexahydrocyclopenta[c]pyrrol-3a(1H)-yl)-6-methyl-1H-indazole]",7.33
13,"Cc1cc2c(cnn2-c2ccc(F)cc2)cc1[C@@]12CN(S(=O)(=O)c3cnn(C)n3)C[C@@H]1[C@@H]2CO (stereo in doubt) [Example 48, (1-(1-(4-fluorophenyl)-6-methyl-1H-indazol-5-yl)-3-((2-methyl-2H-1,2,3-triazol-4-yl)sulfonyl)-3-azabicyclo[3.1.0]hexan-6-yl) methanol]",6.24
14,"Cc1cc2c(cnn2-c2ccc(F)cc2)cc1[C@@]12CN(S(=O)(=O)c3cnn(C)n3)C[C@@H]1[C@H]2COc1ccccc1 (stereo in doubt) [Example 49, 1-(4-fluorophenyl)-6-methyl-5-(3-((2-methyl-2H-1,2,3-triazol-4-yl)sulfonyl)-6-(phenoxymethyl)-3-azabicyclo[3.1.0]hexan-1-yl)-1H-indazole]",6.92
15,"Cc1cc2c(cnn2-c2ccc(F)cc2)cc1[C@@]12CN(S(=O)(=O)c3cnn(C)n3)C[C@@H]1[C@H]2COC(C)C (stereo in doubt) [Example 51, 1-(4-fluorophenyl)-5-(6-(isopropoxymethyl)-3-((2-methyl-2H-1,2,3-triazol-4-yl)sulfonyl)-3-azabicyclo[3.1.0]hexan-1-yl)-6-methyl-1H-indazole]",6.54
16,"Cc1cc2c(cnn2-c2ccc(F)cc2)cc1[C@]12CN(S(=O)(=O)c3cnn(C)n3)C[C@H]1[C@@H]2C(=O)Nc1ccc(F)cn1 (stereo in doubt) [Example 54, 1-(1-(4-fluorophenyl)-6-methyl-1H-indazol-5-yl)-N-(5-fluoropyridin-2-yl)-3-((2-methyl-2H-1,2,3-triazol-4-yl)sulfonyl)-3-azabicyclo[3.1.0]hexane-6-carboxamide]",7.48
17,"Cc1cc2c(cnn2-c2ccc(F)cc2)cc1[C@@]12CN(S(=O)(=O)c3cnn(C)n3)C[C@@H]1[C@H]2C(=O)N1CCCC1 (stereo in doubt) [Example 55, (1-(1-(4-fluorophenyl)-6-methyl-1H-indazol-5-yl)-3-((2-methyl-2H-1,2,3-triazol-4-yl)sulfonyl)-3-azabicyclo[3.1.0]hexan-6-yl)(pyrrolidin-1-yl)methanone]",6.52
18,"Cc1cc2c(cnn2-c2ccc(F)cc2)cc1[C@@]12CN(S(=O)(=O)c3cnn(C)n3)C[C@@H]1[C@H]2C(=O)Nc1ccc(F)cn1 (stereo in doubt) [Example 56, 1-(1-(4-fluorophenyl)-6-methyl-1H-indazol-5-yl)-N-(5-fluoropyridin-2-yl)-3-((2-methyl-2H-1,2,3-triazol-4-yl)sulfonyl)-3-azabicyclo[3.1.0]hexane-6-carboxamide]",7.42
